Experiments:
[1] = xn = mol fraction of the nth substance listed; conditions: 101 kPa, Liquid, x2 = 0; for viscosity: Falling or rolling sphere viscometry; for speed of sound: Frequency=3 MHz, Sing-around technique in a fixed-path interferometer; for mass density: Vibrating tube method
[2] = 101 kPa, Liquid; for viscosity: Falling or rolling sphere viscometry; for speed of sound: Frequency=3 MHz, Sing-around technique in a fixed-path interferometer; for mass density: Vibrating tube method

CCCO [propan-1-ol] + CCCC[n+]1ccn(C)c1.O=S(=O)([N-]S(=O)(=O)C(F)(F)F)C(F)(F)F
[1]
Conditions | mass density [kg/m3] | speed of sound [m/s] | viscosity [mPa·s]
278.15 K | 815.46 | 1275.5 | 3.191
298.15 K | 799.55 | 1205.3 | 1.936
318.15 K | 783.18 | 1137.5 | 1.242
338.15 K | 765.96 | 1070.8 | 0.836

CCCO [propan-1-ol]
[2]
Conditions | mass density [kg/m3] | speed of sound [m/s] | viscosity [mPa·s]
278.15 K | 815.46 | 1275.5 | 3.191
298.15 K | 799.55 | 1205.3 | 1.936
318.15 K | 783.18 | 1137.5 | 1.242
338.15 K | 765.96 | 1070.8 | 0.836

CCCO [propan-1-ol] + CCCCCC[n+]1ccn(C)c1.O=S(=O)([N-]S(=O)(=O)C(F)(F)F)C(F)(F)F
[1]
Conditions | mass density [kg/m3] | speed of sound [m/s] | viscosity [mPa·s]
278.15 K | 815.46 | 1275.5 | 3.191
298.15 K | 799.55 | 1205.3 | 1.936
318.15 K | 783.18 | 1137.5 | 1.242
338.15 K | 765.96 | 1070.8 | 0.836

CCCO [propan-1-ol] + CCn1cc[n+](C)c1.O=S(=O)([N-]S(=O)(=O)C(F)(F)F)C(F)(F)F
[1]
Conditions | mass density [kg/m3] | speed of sound [m/s] | viscosity [mPa·s]
278.15 K | 815.46 | 1275.5 | 3.191
298.15 K | 799.55 | 1205.3 | 1.936
318.15 K | 783.18 | 1137.5 | 1.242
338.15 K | 765.96 | 1070.8 | 0.836
